Converted amounts (≈) assume the structure as drawn. Where two headings read alike, the source gives them in different places.
What was measured:
[1] = biological target: monoclonal antibody P3 6D4; experiment: Kinetics and inhibition of catalytic ester hydrolysis by monoclonal antibody P3 6D4, spectrophotometric at 245 nm; assay type: biochemical, mouse; settings: for Ki / kcat/kuncat: pH 8.0; for Ki: figure = Ki × 10^7, read-out: Ki; for Km / Vmax / kcat: 50 mM phosphate pH 8.0, 25 C; for Km / Vmax: 100 nM IgG; for Km: figure = Km × 10^6; for Vmax: figure = Vmax × 10^9; for kcat: printed figure = kcat × 10^2; for acceleration above the background rate: pH 8.0, corrected for background hydrolysis rate
Experimental: FIG. 4 illustrates a Lineweaver-Burk plot for the hydrolysis of Compound 7 by anti-Compound 4 monoclonal antibody from hybridoma P3 6D4. Velocities were determined spectrophotometrically by measuring initial rates during the first linear portion of the reaction as described with reference to Table 2. The substrate concentrations were corrected for amounts consumed during initial equilibration. ( ) No inhibitor present. ( ) Inhibited by 50 nM phosphonate (Compound 3). ( ) Inhibited by 100 nM phosphonate (Compound 3).
(§1) In particular, an exemplary monoclonal receptor was produced by the standard hybridoma technology of Kohler et al., Nature, 256, 495 (1975). Specifically, female 129G1X^+ mice were immunized by intraperitoneal injection with an inoculum of 100 micrograms of conjugate (e.g., Compound 4i bound to KLH) in 300 microliters of a 1:1 mixture of phosphate buffered saline (PBS) pH 7.4 and complete Freund's adjuvant. Two weeks later, the mice were again injected in a like manner with 50 micrograms of the foregoing conjugate in 300 microliters of a 1:1 mixture of PBS (pH 7.4) and 10 mg/ml alum. After an additional eight weeks, the mice were immunized intravenously with 50 micrograms of the conjugate in 200 microliters of PBS (pH 7.4). The spleens were removed from the mice 4 days later, and the spleen cells were fused to myeloma cells.
Reaction kinetics were measured spectrophotometrically by following the absorption change at 245 nanometers. […] Kinetic parameters obtained with these substrates are shown in Table 2 along with the inhibition constants obtained with phosphonate (Compound 3). Under these conditions, the acceleration above the background rate is about 960-fold for Compound 7 and about 200-fold for Compound 8 (corrected for the background hydrolysis rate).
*The kinetic parameters shown in Table 2 are for the hydrolysis of esters
(Compounds 7 and 8) by monoclonal antibody P3 6D4. A PerkinElmer lambda 4
spectrophotometer, equipped with thermostatted cell holder, was used to
measure absorption changes at 245 nm. Cells containing the substrate at
concentrations of 0.5 to 50 micromolar in phosphate buffer (50 mM, pH 8.0
were preequilibrated at 25 degrees C. The concentration of active IgG in
stock solution was found by reacting with the coumarin ester (Compound 5)
and measuring the yield of hydroxycoumarin by fluorescence. The kinetic
run was initiated by addition of an aliquot of the antibody stock solutio
(in 50 mM phosphate buffer, pH 8.0) calculated to give 100 nM IgG. The
mixture was allowed to equilibrate for 2 to 3 minutes and the rate was
then measured during the subsequent 10 minutes. The absorption change for
complete hydrolysis was determined by treatment with esterase. Kinetic
parameters were obtained from L ineweaverBurk plots (see FIG. 4).
Inhibition constants were determined from a plot of the slopes with at
least four inhibitor concentrations of Compound 3. The data were analyzed

[2] = Metal chelate formation constants, potentiometric titration; assay type: physicochemical; settings: titrimetric analysis, estimated; read-out: formation constants of 1:1 chelates with divalent metal ions
Source text: Such a possibility was investigated using a dipicolinic acid halide to derivatize the ortho aminomethyl group of a phenolic structure (see Compounds 3 and 4 of FIG. 2). The dealkylation of the phosphonyl and acyl esters of this adduct exposes the potential ligands for the formation of a metal chelate. The intrinsic stability of complexes of this ligand, however, determined with divalent transition metals such as cobalt, zinc and copper, are probably too low to expect these chelates to maintain their integrity in the immunization process. In fact, the formation constants of 1:1 chelates of Compound 3 with the divalent metal ions are in the range of 10^4 -10^5 M^-1 as estimated by titrimetric analysis.
Determination of pKa and stability constants K:
All determinations of pKa and stability constants (K) are performed according to the method of Martell. This method consisted of potentiometric titration of the particular compound (at a concentration of about 1.4 mM) in the absence of and in the presence of the metal ion being investigated. The ionic strength was maintained constant using 0.1M NaClO4 as a supporting electrolyte. All measurements were carried out under nitrogen at 25 degrees C plus or minus 0.01 degrees C.

[3] = test system: monoclonal antibody P3 6D4; experiment: Ester hydrolysis by monoclonal antibody P3 6D4, HPLC; assay type: biochemical, mouse; settings: for t1/2 Antibody (P3 6D4): 5 micromolar substrate, 0.1 micromolar antibody, 50 mM phosphate pH 8.0, 25 C
Experimental: FIG. 3 illustrates the rate of hydrolysis of a carboxylic ester (Compound 7) determined by HPLC under the conditions described in Table 1 (50 mM phosphate buffer at pH 8.0 and 23 degrees C). ( ) Uncatalyzed (background)rate of hydrolysis. (.quadrature.) Effect of 0.5 micromolar non-specific monoclonal IgG. ( ) 0.1 Micromolar anti-Compound 4 monoclonal antibody from hybridoma P3 6D4. The superimposed curve represents a theoretical exponential decay which fits the data points.
as §1
(§2) The lack of spectroscopic distinction between such esters and their hydrolysis products recommended a chromatographic analysis of the process. Referring to FIG. 3, a mixture of Compound 7 (5 uM) and the monoclonal antibody from hybridoma P3 6D4 (0.1 uM) in phosphate buffer (50 mM, pH 8.0) was analyzed over time by high performance liquid chromatography (HPLC). The accelerated hydrolysis of the ester was apparent from the decrease of its peak and the concurrent increase in two new peaks that correspond with the expected products. Under these conditions, the ester is completely consumed in 60-80 minutes during which time the background rate accounts for about 12 to 16 percent hydrolysis. The chromatographic profile is the same as that produced by treatment with hog liver esterase.
(§3) *Hydrolysis of carboxylic esters by monoclonal antibody (from hybridoma P
(§4) 6D4) and by hog liver esterase (Sigma Chemical Co., St. Louis, MO, EC
(§5) 3.1.1.1) determined by HPLC on an analytical RPC18 column (Vydac 218TP54)
(§6) with isocratic elution [acetonitrile: water plus 0.1 percent
(§7) trifluoroacetic acid; (35:65)] at a flow rate of 1.0 ml/min and the
(§8) detector set at 245 nm. The initial substrate concentration was 5
(§9) micromolar and that the internal standard (acetophenone) was 10 microm
(§10) olar in 50 mM phosphate buffer at pH 8.0. The retention times (minutes)
(§11) were as follows: acetophenone, 5.0; Compound 7, 8.3; Compound 8, 6.7;
(§12) Compound 9, 4.1; Compound 10, 11.1 (40 percent acetonitrile elution);
(§13) Compound 11, 8.2. The antibody concentration was 15 micrograms/ml (0.1
(§14) micromolar) and that of esterase was 5.5 micrograms/ml. The reaction
(§15) mixtures were kept at 25 degrees C. and aliquots were analyzed at
(§16) intervals of 2 to 20 minutes. Three or more determinations were used to
(§17) plot a curve from which the halflife of the reaction is estimated (see

hog liver esterase = assay type: biochemical; settings: pig, 5 µM, pH 8
Experimental: as §2, §3, §4, §5, §6, §7, §8, §9, §10, §11, §12, §13, §14, §15, §16, §17

[4] = Spontaneous (uncatalyzed, background) hydrolysis; assay type: physicochemical; settings: spectrophotometric at 245 nm, initial rates at five ester concentrations; figure = k × 10^5
Procedure, shortened: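 Background (uncatalyzed) hydrolysis of ester substrates measured in 50 mM phosphate buffer, pH 8.0, without antibody, as percentage of reactant consumed over the stated period. Quantified by C18 HPLC (acetonitrile/water with 0.1% trichloroacetic acid); Compounds 5 and 20 followed by fluorescence (ex 355 nm, em 455 nm).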

Solubility = assay type: physicochemical; settings: aqueous buffer
[5] = test system: monoclonal receptor P3 6D4; experiment: Stoichiometric transacylation reaction of monoclonal receptor P3 6D4 with coumarin ester Compound 5 (fluorescence) and its inhibition/inactivation; assay type: biochemical, mouse
Procedure, shortened: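 Antibody P3 6D4 (100 nM final) reacted at 23 °C with coumarin ester 5 in Tris-HCl or phosphate buffer (50 mM, pH 4–9), followed by fluorescence (ex 355/em 455 nm). Initial rates corrected for spontaneous hydrolysis; kinetic parameters from hyperbolic and double-reciprocal fits, Ki from Lineweaver-Burk with ≥5 inhibitor concentrations.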

[6] = leaving group alcohol; source not stated; cited from earlier work

| t1/2 Antibody (P3 6D4) [3] [min] | t1/2 Esterase (hog liver esterase) [min] | Km [1] [µM] | Structure (SMILES) | Vmax [1] [µM/min] | kcat [1] [s⁻¹] | kcat/kuncat [1] | acceleration above the background rate [1] | also measured |
| --- | --- | --- | --- | --- | --- | --- | --- | --- |
| – | – | – | CCOP(=O)(Cc1ccc(NC(=O)C(F)(F)F)cc1)Oc1ccc(NC(C)=O)cc1CNC(=O)c1cccc(C(=O)OC)n1 (stereo not shown) [Compound 3] | – | – | – | – | Ki ([1]; inhibitor Compound 3, substrate Compound 7 (table line 7)): 160 nM; Ki ([1]; inhibitor Compound 3, substrate Compound 8 (table line 8)): 65 nM; Kd [2]: 10000 to 100000 nM |
| 16 | 4 | 1.9 | CC(=O)Nc1ccc(OC(=O)Cc2ccc(NC(=O)C(F)(F)F)cc2)cc1 [Compound 7] | 0.132 | 0.027 | 960 | about 960 fold | time to complete consumption of ester ([3]; 5 uM Compound 7, 0.1 uM antibody P3 6D4, 50 mM phosphate pH 8.0): 60 to 80 min; kuncat [4]: 280000 s⁻¹; turn over of receptor with substrate ([1]; without noticeable inactivation): several hundred fold; solubility (Solubility; read-out: concentration above which solutions become slightly turbid): 15 µM (≈ 5.7 µg/mL) |
| 60 | 52 | 0.62 | O=C(O)CCC(=O)Nc1ccc(OC(=O)Cc2ccc(NC(=O)C(F)(F)F)cc2)cc1 [Compound 8] | 0.06 | 0.008 | 210 | about 200 fold | accelerated hydrolysis by P3 6D4 (substrate acceptance) ([3]; pH 8.0): somewhat slower rate; inactivation of receptor [5]: loss of activity; solubility (Solubility; 50 mm phosphate buffer, phosphate buffer 50 mM, pH 8.0, read-out: soluble up to concentration): ≥ 100 µM |
| – | – | – | Oc1cccc2ccccc12 [alpha-naphthol] | – | – | – | – | pKa [6]: about 9.3 |

From patent US5126258A (priority 1988, dated 1992)
